test: Human HepG2 cell viability assay in 384 well format; type: toxicity, cell-based; parameters: dose 125 nL, time 70.5 hour; cytotoxicity at 70.5 h: concentration not given beside the values; conditions: HepG2 cells, read-out: Inhibition

**Q.** With Cn1ccc2c(ccn2CC(=O)Nc2ccc(Br)cc2)c1=O as the molecule, how does the cytotoxicity at 70.5 h read?
**A.** Its cytotoxicity at 70.5 h is 30.5%.

**Q.** For Cc1ccc(Oc2ncccc2C(=O)O)c(C)c1, which cytotoxicity at 70.5 h is on record?
**A.** Its cytotoxicity at 70.5 h is -4.94%.

**Q.** Which cytotoxicity at 70.5 h does the source give for CNC(=O)c1csc(-c2cccnc2)n1 here?
**A.** Its cytotoxicity at 70.5 h is 2.96%.

**Q.** With Cc1c(NC(=O)C(C)N(C)C)c(=O)n(-c2ccccc2)n1C (stereo unspecified) as the molecule, how does the cytotoxicity at 70.5 h read?
**A.** The cytotoxicity at 70.5 h was -1.07%.

**Q.** Which cytotoxicity at 70.5 h does the source give for Cc1ccc(Oc2ncccc2C(=O)N(C)CCCN(C)C)c(C)c1 here?
**A.** The cytotoxicity at 70.5 h was -5.42%.

**Q.** Which cytotoxicity at 70.5 h does the source give for Cc1ccc(Oc2ncccc2C(=O)N(C)CCCN(C)C)cc1 here?
**A.** The cytotoxicity at 70.5 h was 0.617%.

**Q.** Which cytotoxicity at 70.5 h does the source give for COc1ccc(C(=O)Nc2cccc(SC)c2)c(OC)n1 here?
**A.** The cytotoxicity at 70.5 h was 26.2%.

**Q.** Which cytotoxicity at 70.5 h does the source give for CC1CN(c2ncccc2C(=O)Nc2cccc3c2CCCC3)CCN1 (stereo unspecified) here?
**A.** Its cytotoxicity at 70.5 h is -5.69%.

**Q.** With CCCNc1ccc(C(=O)NCCc2cccc(OC)c2)cn1 as the molecule, how does the cytotoxicity at 70.5 h read?
**A.** The cytotoxicity at 70.5 h was -3.99%.

**Q.** For O=C(NCC1CC1)c1cc(Br)cnc1N1CCCCC1, which cytotoxicity at 70.5 h is on record?
**A.** The cytotoxicity at 70.5 h was -1.59%.

**Q.** For CCOC(=O)CNC(=O)c1cccnc1Sc1cc(OC)ccc1OC, which cytotoxicity at 70.5 h is on record?
**A.** The cytotoxicity at 70.5 h was 11.1%.

**Q.** Which cytotoxicity at 70.5 h does the source give for COc1ccc(OC)c(Sc2ncccc2C(=O)NCCSC)c1 here?
**A.** Its cytotoxicity at 70.5 h is -8.11%.

**Q.** Which cytotoxicity at 70.5 h does the source give for CCSc1ncccc1C(=O)NCc1ccc(N(C)C)cc1 here?
**A.** Its cytotoxicity at 70.5 h is -7.85%.

**Q.** With N#Cc1cnc(N2CCC3(CC2)OCCO3)nc1N as the molecule, how does the cytotoxicity at 70.5 h read?
**A.** Its cytotoxicity at 70.5 h is -5.59%.

**Q.** Which cytotoxicity at 70.5 h does the source give for O=C(N[C@H]1CCCC[C@@H]1O)c1ccc(-c2nc3ccccc3[nH]2)cc1 here?
**A.** The cytotoxicity at 70.5 h was -1.28%.

**Q.** For O=C(N[C@H]1CCCC[C@@H]1O)c1ccc2nc(-c3ccccc3)[nH]c2c1, which cytotoxicity at 70.5 h is on record?
**A.** Its cytotoxicity at 70.5 h is 9.22%.

**Q.** For O=C(NC[C@H]1CCCC[C@H]1O)c1cccc2[nH]c(-c3cccs3)nc12, which cytotoxicity at 70.5 h is on record?
**A.** Its cytotoxicity at 70.5 h is -5.24%.

**Q.** With O=C([C@@H]1CCCN1c1nccc(Nc2ccccc2)n1)N1CCCCC1 as the molecule, how does the cytotoxicity at 70.5 h read?
**A.** Its cytotoxicity at 70.5 h is 20.9%.

**Q.** With CC(=O)N1N=C(c2ccccc2)OC1C(=O)NCCc1ccc(O)cc1 (stereo unspecified) as the molecule, how does the cytotoxicity at 70.5 h read?
**A.** Its cytotoxicity at 70.5 h is -1.25%.

**Q.** For CCOCCNC(=O)[C@@H]1CCCN1c1nccc(Nc2ccccc2)n1, which cytotoxicity at 70.5 h is on record?
**A.** Its cytotoxicity at 70.5 h is -1.64%.

**Q.** With CC1(C)CC(NC(=O)c2cnn(-c3ccccc3F)c2N)CC(C)(C)N1 as the molecule, how does the cytotoxicity at 70.5 h read?
**A.** Its cytotoxicity at 70.5 h is 19.7%.

**Q.** For CN1CCC(N(C)C(=O)c2cnn(-c3ccccc3Br)c2N)CC1, which cytotoxicity at 70.5 h is on record?
**A.** Its cytotoxicity at 70.5 h is 0.0189%.

**Q.** Which cytotoxicity at 70.5 h does the source give for CC(=O)N1N=C(c2ccco2)OC1C(=O)NCCc1ccc(O)cc1 (stereo unspecified) here?
**A.** The cytotoxicity at 70.5 h was -2.51%.

**Q.** For CC(=O)N1N=C(c2ccncc2)OC1C(=O)N(C)CCc1ccccc1 (stereo unspecified), which cytotoxicity at 70.5 h is on record?
**A.** The cytotoxicity at 70.5 h was 4.98%.

**Q.** Which cytotoxicity at 70.5 h does the source give for CC(=O)N1N=C(c2ccco2)OC1C(=O)N(C)CCc1ccccc1 (stereo unspecified) here?
**A.** Its cytotoxicity at 70.5 h is 20.4%.

**Q.** Which cytotoxicity at 70.5 h does the source give for CC(=O)N1N=C(c2ccccc2)OC1C(=O)NCCN(C(C)C)C(C)C (stereo unspecified) here?
**A.** The cytotoxicity at 70.5 h was -6.17%.

**Q.** For CC(=O)N1N=C(c2ccccc2)OC1C(=O)NCC(=O)OC(C)(C)C (stereo unspecified), which cytotoxicity at 70.5 h is on record?
**A.** The cytotoxicity at 70.5 h was -2.16%.

**Q.** With CC(=O)N1N=C(c2cccs2)OC1C(=O)Nc1ccccc1 (stereo unspecified) as the molecule, how does the cytotoxicity at 70.5 h read?
**A.** Its cytotoxicity at 70.5 h is -8.33%.

**Q.** With Cc1nc(-c2ccoc2)n(CC(=O)NCC(C)C)c1C as the molecule, how does the cytotoxicity at 70.5 h read?
**A.** The cytotoxicity at 70.5 h was 1.09%.

**Q.** Which cytotoxicity at 70.5 h does the source give for CN(C)CCN(C)c1cc(N2CCN(c3ccccn3)CC2)ncn1 here?
**A.** The cytotoxicity at 70.5 h was 13.5%.

**Q.** With CN(C)C(=O)c1cc2ncc(C(=O)NC3CCCC3)cc2n1C as the molecule, how does the cytotoxicity at 70.5 h read?
**A.** Its cytotoxicity at 70.5 h is -0.145%.

**Q.** Which cytotoxicity at 70.5 h does the source give for Cc1csc2cc(C(=O)NC3CCCC3)cnc12 here?
**A.** Its cytotoxicity at 70.5 h is 3.45%.

**Q.** With COCCN(CCOC)C(=O)c1cn(C(C)(C)C)c2ncccc12 as the molecule, how does the cytotoxicity at 70.5 h read?
**A.** Its cytotoxicity at 70.5 h is 3.1%.

**Q.** Which cytotoxicity at 70.5 h does the source give for CNC(=O)c1cn(C(C)(C)C)c2ncccc12 here?
**A.** Its cytotoxicity at 70.5 h is -2.43%.

**Q.** For CC(C)(C)n1cc(C(=O)NCCN2CCOCC2)c2cccnc21, which cytotoxicity at 70.5 h is on record?
**A.** The cytotoxicity at 70.5 h was 6.12%.

**Q.** Which cytotoxicity at 70.5 h does the source give for CCNC(=O)c1cn(C(C)(C)C)c2ncccc12 here?
**A.** Its cytotoxicity at 70.5 h is -0.924%.

**Q.** Which cytotoxicity at 70.5 h does the source give for O=C(c1cn(Cc2ccccc2)c2ncccc12)N1CCCCC1 here?
**A.** The cytotoxicity at 70.5 h was 3.09%.

**Q.** Which cytotoxicity at 70.5 h does the source give for CCN1CCN(C(=O)c2cn(Cc3ccccc3)c3ncccc23)CC1 here?
**A.** The cytotoxicity at 70.5 h was -0.985%.

**Q.** For CN1CCCN(c2ncnc(N3CCOCC3)c2N)CC1, which cytotoxicity at 70.5 h is on record?
**A.** The cytotoxicity at 70.5 h was -6.57%.

**Q.** For CN(C)C(=O)c1cc(-c2ccccc2)[nH]n1, which cytotoxicity at 70.5 h is on record?
**A.** The cytotoxicity at 70.5 h was -6.41%.

**Q.** For COc1c(C(=O)N2CCNC(=O)C2)cnc2c1c(C)nn2C, which cytotoxicity at 70.5 h is on record?
**A.** Its cytotoxicity at 70.5 h is 21%.

**Q.** For NC1(CNC(=O)c2cc3ccccc3[nH]2)CCCC1, which cytotoxicity at 70.5 h is on record?
**A.** The cytotoxicity at 70.5 h was 16%.

**Q.** Which cytotoxicity at 70.5 h does the source give for Cn1c(C(=O)NCC2(N)CCCC2)cc2ccccc21 here?
**A.** The cytotoxicity at 70.5 h was 3.39%.

**Q.** Which cytotoxicity at 70.5 h does the source give for CN1CCC(NC(=O)c2cc(C3CCCCC3)nc3ccccc23)CC1 here?
**A.** The cytotoxicity at 70.5 h was -2.29%.

**Q.** For CC(C)(O)CN1CCC(=O)N(Cc2ccco2)Cc2cc(F)ccc21, which cytotoxicity at 70.5 h is on record?
**A.** Its cytotoxicity at 70.5 h is 3.68%.

**Q.** For Nc1nc(Nc2ccccc2)cc(N2CCNCC2)n1, which cytotoxicity at 70.5 h is on record?
**A.** The cytotoxicity at 70.5 h was -3.76%.

Source: ChEMBL document CHEMBL3507680, “University of Dundee, Gates Library screen for HepG2 cell viability”
